Results taken from patent publication US20180088120A1, “Elevated PSMA Identifies Lethal Prostate Cancers” (Cornell University, priority 2012, published 2018).

Test system: prostate cancer lesions
Assay: FDG PET imaging of prostate cancer patients (comparison)
Type: in vivo, human
From the text: These panels show CT scans (left column) and PET scans (right column). […] However, this is not observed in the Fludeoxyglucose (^18F) PET (lower right panel).
FIGS. 7-9 show CT and PET/CT scan taken from the same patient as from FIG. 6.

OC[C@H]1OC(O)[C@H]([18F])[C@@H](O)[C@@H]1O (some centres unmarked) [Fludeoxyglucose (^18F)]
PET uptake in bone metastasis, left iliac bone (patient with metastatic prostate cancer, FIG. 5): not observed | Uptake in skeletal lesions not clearly seen on bone scan (patient with prostate carcinoma, FIG. 6): non-FDG avid
